IC50 and Ki data for three molecules are collected here from BindingDB's records for doi:10.1016/j.bmc.2007.03.073 (University of Upper Alsace, 2007).

The term IC50 denotes the point on the concentration scale where inhibition reaches its midpoint. Read a high IC50 as a need for much substance. In general, Ki refers to the equilibrium dissociation constant of an inhibitor or competing ligand from its target.

A short description of the assay: Inhibition of yeast alpha-D-glucosidase.

`O=C1CNC[C@@H]1O` registered a half-maximal inhibitory concentration (IC50) of 150 µM.

For `O[C@H]1[C@H](O)CN[C@H]1O`, the Ki was determined as 2 µM.

`OC[C@H]1NC(O)[C@H](O)[C@@H](O)[C@@H]1O` (stereo partly drawn) [NOJIRIMYCIN] yielded a Ki of 6.3 µM.
